Reference: US20240124464A1, “SUBSTITUTED FUSED BICYCLIC COMPOUND AS KINASE INHIBITOR AND USE THEREOF” (IMPACT THERAPEUTICS (SHANGHAI), INC, priority 2020, published 2024)
Numbering of substitutions follows the chain as printed.

Experiments:
MEF cells = conditions: compared with shRNA knockdown of NUAK1; cited from earlier work
U2OS cell = conditions: 3D invasion assay, compared with NUAK1 knockout; cited from earlier work
[1] = target: T1, NUAK1 (mutation from Ala to Thr at position 195) (Homo sapiens, UniProt O60285, A195T); conditions: cited from earlier work
T1 sequence (O60285 1-661 A195T): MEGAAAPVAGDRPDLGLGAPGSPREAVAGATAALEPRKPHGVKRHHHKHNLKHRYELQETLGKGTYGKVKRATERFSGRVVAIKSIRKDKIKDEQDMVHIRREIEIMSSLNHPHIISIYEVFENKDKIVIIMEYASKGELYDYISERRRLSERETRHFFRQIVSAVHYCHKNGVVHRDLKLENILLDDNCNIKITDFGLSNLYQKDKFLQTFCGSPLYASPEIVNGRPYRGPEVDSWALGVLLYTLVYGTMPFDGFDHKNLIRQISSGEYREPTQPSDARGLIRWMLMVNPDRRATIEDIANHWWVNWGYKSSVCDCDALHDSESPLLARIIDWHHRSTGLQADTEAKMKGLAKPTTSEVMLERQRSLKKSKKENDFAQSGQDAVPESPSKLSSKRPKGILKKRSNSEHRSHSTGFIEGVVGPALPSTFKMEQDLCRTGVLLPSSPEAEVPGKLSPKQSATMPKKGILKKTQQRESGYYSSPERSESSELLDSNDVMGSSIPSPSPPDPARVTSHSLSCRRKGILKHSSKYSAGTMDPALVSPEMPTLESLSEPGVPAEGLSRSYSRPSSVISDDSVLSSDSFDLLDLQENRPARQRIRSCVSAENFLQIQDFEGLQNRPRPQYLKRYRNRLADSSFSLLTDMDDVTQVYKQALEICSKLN

NUAK1 = target: T2, NUAK1 (Homo sapiens, UniProt O60285); conditions: cited from earlier work
T2 sequence (O60285 1-661): T1 sequence (O60285 1-661 A195T) with T195A

[2] = tested on: HEC-1-B human endometrial cancer cells; assay: CTG (CellTiter-Glo) proliferation assay on HEC-1-B cells, 7 days; type: cell-based; conditions: 168 h, 7 days incubation, read-out: IC50, inhibitory effect on proliferation of Hec-1B cells
Description: CTG Assay to Evaluate the Inhibitory Effect of Compounds on HEC-1-B Human Endometrial Cancer Cells
Human endometrial cancer HEC-1-B cells were resuscitated and cultured in complete medium (MEM medium+10% FBS). When reaching about 80% confluence, the cells were gently blown away from the bottom of the culture dish with a 1 mL pipette. The cells were collected and centrifuged at 500 rpm for 3 min. The supernatant was discarded and the cell pellet was resuspend in fresh medium. Cells were counted to determine cell density and seeded into 96-well plates at a density of 1000 cells per well and incubated overnight at 37° C. in a 5% CO2 incubator. In the next day, the compounds in storage solution was serially diluted with DMSO at a ratio of 1:3 for a total of 9 concentrations. Two μL of each serially diluted solution was added to 98 μL of cell culture medium ([…]), while DMSO was mixed with culture medium similarly to be served as control. The compound dilutions were shaken and mixed. The cell culture plate with cells was removed from CO2 incubator, the culture medium was aspirated from each well, 135 μL of fresh medium was added to each well followed with 15 μL of the compound dilutions. The plates were incubated at 37° C. for 7 days in a 5% CO2 incubator. One hundred μL CellTiter-Glo reagent was added to each well and the plate was vortexed for 2 min and incubated for 10 min to fully lyse the cells. The chemiluminescence values were read using a plate reader.
The chemiluminescence values were plotted against compound concentrations to calculate the inhibitory activity of each compound on cell proliferation Cell inhibition rate (%)=(chemiluminescence value tested compound−chemiluminescence value DMSO control)/(chemiluminescence value medium control−chemiluminescence valueDMSO control)×100%.
A nonlinear S-curve regression was fitted using XLFit software to fit the data to derive a dose-effect curve, from which the IC50 values were calculated. The curve equation was Y=Bottom+(Top-Bottom)/(1+10{acute over ( )}((LogIC50-X)×slope)), where Y is the cellular inhibition rate, X is the compound concentration, Bottom refers to the lowest inhibition rate, and Top refers to the highest inhibition rate.
Table 3 summarizes the inhibitory effects (IC50) of the compounds on the proliferation of Hec-1B cells, Where ++++ indicates 100 nM<IC50≤500 nM; +++ indicates 500 nM<IC50≤1 μM; ++ indicates 1 μM<IC50≤10 μM; + indicates IC50>10 μM.

NUAK1(h) enzyme = target: T3, NUAK1(h) enzyme (Homo sapiens, UniProt O60285); assay: In vitro NUAK1 enzymatic assay (Eurofins Discovery, [γ-33P]-ATP filter assay); type: biochemical; conditions: 45 μM ATP, 40 min, room temperature; read-out: IC50, inhibitory effect on NUAK1 enzyme activity
T3 construct: purchased Eurofins Discovery
T3 sequence (O60285 1-661): T1 sequence (O60285 1-661 A195T) with T195A
Description: In Vitro Assay to Determine the Inhibitory Effect of Compounds in the Patent on NUAK1 Enzymatic Activity
The in vitro NUAK1 enzymatic assay was carried out at Eurofins Discovery to evaluate the inhibitory effect of the compounds presented in the invention. The assay protocol is as follow: the compound to be tested was mixed with NUAK1(h) enzyme and 300 μM […] substrate in 8 mM MOPS (pH 7.0) buffer containing 0.2 mM EDTA and incubated at room temperature. A Mg/ATP mixture containing 10 mM magnesium acetate and 45 μM [y-33P]-ATP was added to start the reaction. After incubation for 40 min at room temperature, the reaction was terminated by adding 0.5% phosphoric acid. Then, 10 μL of the reaction mix was spotted onto a P30 filter paper followed with four times of wash with 0.425% phosphoric acid solution (4 min each time), and one time wash with methanol. The filter paper was air-dried and counted in a liquid scintillation counter. The values obtained were plotted against the drug concentration and the IC50 was calculated.
Table 1 summarizes the inhibitory effect (IC50) of compounds tested on the NUAK1 enzyme activity in the present invention. ++++ indicates IC50≤10 nM; […]; ++ indicates 100 nM<IC50≤1 μM; + indicates IC50>1 μM.

NUAK2(h) enzyme = target: T4, NUAK2(h) enzyme (Homo sapiens, UniProt Q9H093); assay: In vitro NUAK2 enzymatic assay (Eurofins Discovery, [γ-33P]-ATP filter assay); type: biochemical; conditions: 45 μM ATP, 40 min, room temperature; read-out: IC50, inhibitory effect on NUAK2 enzyme activity
T4 construct: purchased Eurofins Discovery
T4 sequence (Q9H093 1-628): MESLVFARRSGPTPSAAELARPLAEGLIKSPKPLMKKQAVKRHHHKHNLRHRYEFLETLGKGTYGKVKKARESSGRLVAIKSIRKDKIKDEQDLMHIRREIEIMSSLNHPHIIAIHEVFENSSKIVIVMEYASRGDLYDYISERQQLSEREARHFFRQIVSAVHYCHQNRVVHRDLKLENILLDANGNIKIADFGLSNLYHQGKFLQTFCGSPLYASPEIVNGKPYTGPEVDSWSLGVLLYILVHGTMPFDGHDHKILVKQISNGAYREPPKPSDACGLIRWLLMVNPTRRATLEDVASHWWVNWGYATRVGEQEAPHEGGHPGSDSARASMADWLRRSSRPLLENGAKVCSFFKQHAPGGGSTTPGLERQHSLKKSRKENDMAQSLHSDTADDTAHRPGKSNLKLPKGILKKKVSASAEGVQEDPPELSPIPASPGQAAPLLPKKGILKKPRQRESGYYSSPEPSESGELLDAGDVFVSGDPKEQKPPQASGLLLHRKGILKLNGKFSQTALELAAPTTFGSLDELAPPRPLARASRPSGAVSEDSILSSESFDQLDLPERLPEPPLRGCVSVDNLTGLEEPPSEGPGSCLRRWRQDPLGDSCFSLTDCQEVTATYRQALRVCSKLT
Description: In Vitro Assay to Determine the Inhibitory Effect of Compounds in the Patent on NUAK2 Enzymatic Activity
The in vitro NUAK2 enzymatic assay was carried out at Eurofins Discovery to evaluate the inhibitory effect of the compounds presented in the invention. The assay protocol is as follow: the compound to be tested was mixed with NUAK2(h) enzyme and 300 […] substrate in 8 mM MOPS (pH 7.0) buffer containing 0.2 mM EDTA. A Mg/ATP mixture containing 10 mM magnesium acetate and 45 μM [γ-33P]-ATP was added to start the reaction. After incubation for 40 min at room temperature, the reaction was terminated by adding 0.5% phosphoric acid. Then 10 μL of the reaction mix was spotted onto a P30 filter paper. The filter paper was washed four times with 0.425% phosphoric acid with 4 min for each wash, and one time with methanol. The filter paper was air-dried and counted in a liquid scintillation counter. The values obtained were plotted against the drug concentration and the IC50 was calculated.
Table 1 summarizes the inhibitory effect (IC50) of compounds on the NUAK2 enzyme activity in the present invention. ++++ indicates IC50≤10 nM; +++ indicates 10 nM<IC50≤100 nM; ++ indicates 100 nM<IC50≤1 μM; + indicates IC50>1 μM.

IC50 [2] [nM]	IC50 (NUAK1(h) enzyme) [nM]	IC50 (NUAK2(h) enzyme) [nM]	SMILES	inhibition on proliferation against MEF cells (MEF cells)	inhibition of U2OS cell invasion (U2OS cell)	resistance of NUAK1 Ala195Thr mutant to the inhibitor [1] [fold]	inhibition of phosphorylation of MYPT1 by NUAK1 at Ser445 (NUAK1)
			Cc1nc(Nc2cnn(C3CCNCC3)c2)nc2c1N(C)C(=O)c1cc3ccccc3cc1N2C [HTH-01-015]	comparable to that of shRNA knockdown of NUAK1	inhibited U2OS cell invasion similarly to NUAK1 knockout did	50	inhibit the phosphorylation of MYPT1
			CCC(=O)Nc1cccc(Oc2nc(Nc3ccc(N4CCN(C)CC4)cc3OC)ncc2Cl)c1 [WZ4003]	comparable to that of shRNA knockdown of NUAK1	inhibited U2OS cell invasion similarly to NUAK1 knockout did	50	inhibit the phosphorylation of MYPT1
100 to 500	10 to 100	100 to 1000	COc1cc(N2CCN(C)CC2)ccc1Nc1ncc2ccc(=O)n(C3CC3)c2n1 [Example 23, 8-cyclopropyl-2-((2-methoxy-4-(4-methylpiperazin-1-yl)phenyl)amino)pyrido[2,3-d]pyrimidin-7(8H)-one]				
